The source of these data is US20190269784A1, “Selective Inhibitors of the Polo-Like Kinase 1 Polo-Box Domain” (UNIVERSITY OF SOUTH CAROLINA, priority 2018, published 2019).

Values joined by “and” are separate entries in the source; they are usually repeats but may differ in a detail not shown here. Identical values can stand only once. Like-named read-outs stand apart in the source and are kept apart here. Square brackets hold non-standard residues; d marks the D form. Ends that are not written are not given here. Peptide text beside a SMILES is read from it. * marks the point of attachment. Benzoyl(4-octyl) = CCCCCCCCc1ccc(C(=O)*)cc1; pT = C[C@@H](OP(=O)(O)O)[C@H](N)C(=O)O; X2 = O=C(c1ccc(OCc2ccc(F)cc2)cc1)*; Benzoyl(4-OH) = O=C(c1ccc(O)cc1)*

For orientation: IC50 means the concentration that inhibits the measured activity by half.

Assay [1] has as its target polo-box domain (PBD) of polo-like kinase 1 (PLK1) (UniProt P53350). Kind of assay: fluorescence polarization competition, displacement of tracer peptide from PLK1 PBD.
Assay [2] has the same target. Kind of assay: from FP IC50s; PLK1 PBD against PLK3 PBD.
The target is the same in assay [3]. Kind of assay: fluorescence polarization competition on PLK1 PBD. A general note: Polarisation of emitted light reports the rotation of a fluorescent probe.
For assay [4], the target named is PLK1 PBD (Homo sapiens, UniProt P53350). Kind of assay: Fluorescence polarization competitive binding assay, PLK1 PBD. The settings on record: for Selectivity Index: (IC50 PLK3 PBD/IC50 PLK1 PBD)×5, PLK1 over PLK3. The protocol:
According to the assay, binding of a fluorescent tracer peptide to a protein increased polarization of the emitted fluorescence. […] The ability of test molecules to bind to the PBD was quantitated by a reduction in mP values that occurred as the tracer was displaced from the PBD, and plotted to calculate as an IC50 value.
(§1) The affinities of the peptides for PLK1 and PLK3 were measured by plotting the loss of polarization against increasing concentration of competitor peptide through use of an optimized assay and selectivity determination.

Assay [5] addresses T1, PLK3 PBD (Homo sapiens, UniProt Q9H4B4).
T1 construct: A similar assay format was developed for the PLK3 PBD
T1 sequence (Q9H4B4 335-646 limits assumed): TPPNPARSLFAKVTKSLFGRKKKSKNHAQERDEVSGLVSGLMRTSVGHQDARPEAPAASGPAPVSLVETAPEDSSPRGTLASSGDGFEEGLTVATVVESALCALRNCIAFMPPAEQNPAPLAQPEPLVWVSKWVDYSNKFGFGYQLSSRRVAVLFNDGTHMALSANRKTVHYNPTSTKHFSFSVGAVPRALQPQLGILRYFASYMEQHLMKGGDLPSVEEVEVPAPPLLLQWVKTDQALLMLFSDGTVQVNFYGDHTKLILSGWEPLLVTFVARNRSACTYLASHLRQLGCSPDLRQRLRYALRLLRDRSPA
Kind of assay: Fluorescence polarization competitive binding assay, PLK3 PBD. The settings on record: for PLK3 PBD binding, in words: FP assay. The protocol: The binding of fluorescein-labelled tracer peptides used for both assays was determined to see if there was a difference in affinity for their respective PBD. A titration curve for each tracer/PLK PBD complex was generated to determine Kd values for each and therefore compare the relative binding affinities.
as §1

For assay [6], the target named is polo-box domain (PBD) of polo-like kinase 1 (PLK1) (UniProt P53350). Kind of assay: from FP IC50s, (IC50 PLK3 PBD/IC50 PLK1 PBD)x5; PLK1 PBD against PLK3 PBD.
Chain of polo-box domain (PBD) of polo-like kinase 1 (PLK1) (P53350 367-603 limits assumed): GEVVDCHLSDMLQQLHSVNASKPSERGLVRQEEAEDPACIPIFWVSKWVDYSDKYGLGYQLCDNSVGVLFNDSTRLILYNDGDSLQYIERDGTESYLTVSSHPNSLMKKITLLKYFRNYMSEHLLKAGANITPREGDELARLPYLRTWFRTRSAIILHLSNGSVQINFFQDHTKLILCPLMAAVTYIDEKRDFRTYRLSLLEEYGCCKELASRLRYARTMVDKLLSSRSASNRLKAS
The mark [7] stands for this setting: PLK3 PBD FP IC50, competition with fluorescent tracer peptide.
The mark [8] stands for this setting: competition with fluorescent tracer peptide, read-out: PLK3 PBD FP IC50.
Where [9] appears, read: competition with fluorescent tracer peptide, read-out: PLK1 PBD FP IC50.

Chain of PLK1 PBD (P53350 367-603 limits assumed): as above

On to “4-butyl benzamide FLIP, 4-butyl S[pT]PNGL (SEQ ID NO: 11) (peptide)”, for which the IC50 in assay [1] was found to be 2500 nM. Also, in assay [2], the Selectivity Index is above 1200. In addition, the fold potency increase against Compound #9 in assay [3] was found to be 2 fold.

Regarding `CC(C)C[C@H](NC(=O)CNC(=O)[C@H](CC(N)=O)NC(=O)[C@@H]1CCCN1C(=O)[C@@H](NC(=O)[C@H](CO)NC(=O)c1ccc(O)cc1)[C@@H](C)OP(=O)(O)O)C(=O)O` [Compound 1] ({Benzoyl(4-OH)}-S[pT]PNGL-OH), the “PLK1 PBD binding, in words” value in assay [4] (FP assay) was “completely inactive”.

`CC(C)C[C@H](NC(=O)CNC(=O)[C@H](CC(N)=O)NC(=O)[C@@H]1CCCN1C(=O)[C@@H](NC(=O)[C@H](CO)NC(=O)c1ccc(OCc2ccc(F)cc2)cc1)[C@@H](C)OP(=O)(O)O)C(=O)O` [Compound 5] (X2-S[pT]PNGL-OH; C-terminus assumed): in assay [4], the IC50 is 5000 nM and the “fold reduction of PLK1 PBD binding relative to parent compound” value was around 24 fold.

In the case of `CCCCCCCCc1ccc(C(=O)N[C@@H](CO)C(=O)N[C@H](C(=O)N2CCC[C@H]2C(=O)N[C@@H](CC(N)=O)C(=O)NCC(=O)N[C@@H](CC(C)C)C(=O)O)[C@@H](C)OP(=O)(O)O)cc1` [Compound 13] ({Benzoyl(4-octyl)}-S[pT]PNGL-OH; C-terminus assumed), in assay [5] (setting [7]), the IC50 was found to be 149000 ± 38200 nM.

In the case of `CCCCCCCCc1ccc(C(=O)N[C@@H](CO)C(=O)N[C@H](C(=O)N[C@@H](C)C(=O)O)[C@@H](C)OP(=O)(O)O)cc1` [Compound 14], in assay [4], the “fold reduction of PLK1 PBD binding relative to parent compound” value was around 40 fold and the “Selectivity Index” value turned out to be 66. In assay [5] (setting [8]), the IC50 stood at 202000 ± 51300 nM.

Consider `CC(C)C[C@H](NC(=O)CNC(=O)[C@H](CC(N)=O)NC(=O)[C@@H]1CCCN1C(=O)[C@@H](NC(=O)[C@H](CO)NC(=O)[C@H](CS)NC(=O)[C@H](CC(C)C)NC(=O)[C@@H](N)CC(C)C)[C@@H](C)OP(=O)(O)O)C(=O)O` [SEQ ID NO: 1, LLCS[pT]PNGL, reference compound] (H-LLCS[pT]PNGL-OH; N-terminus and C-terminus assumed), for which the “PLK3 PBD binding, in words” value in assay [5] is given as “no PLK3 PBD binding apparent at the maximum concentration tested”.

For `CC(C)C[C@H](NC(=O)CNC(=O)[C@H](CC(N)=O)NC(=O)[C@@H]1CCCN1C(=O)[C@@H](NC(=O)[C@H](CO)NC(=O)[C@H](CS)NC(=O)[C@H](CC(C)C)NC(=O)[C@@H](N)CC(C)C)[C@@H](C)O)C(=O)O` [SEQ ID NO: 2, reference compound] (H-LLCSTPNGL-OH), in assay [4], the IC50 was above 600000 nM.

For the molecule `CC(=O)N1CCC[C@H]1C(=O)N[C@@H](CC(C)C)C(=O)N[C@@H](Cc1c[nH]cn1)C(=O)N[C@@H](CO)C(=O)N[C@H](C(=O)N1CCC[C@H]1C(=O)N[C@@H](CC(N)=O)C(=O)NCC(=O)N[C@@H](CC(C)C)C(=O)O)[C@@H](C)OP(=O)(O)O` [SEQ ID NO: 3, Ac-PLHS[pT]PNGL] (Ac-PLHS[pT]PNGL-OH; C-terminus assumed), the “Selectivity Index” value in assay [4] is reported as 13,633. In addition, the concentration for half-maximal inhibition (IC50) in assay [4] (setting [9]) stood at 60 nM; in assay [5] (setting [8]), 164000 nM.

`CC[C@H](C)[C@H](NC(=O)[C@H](C)NC(=O)[C@@H](NC(=O)[C@H](CO)NC(=O)[C@H](Cc1c[nH]cn1)NC(=O)[C@H](CC(C)C)NC(=O)[C@@H]1CCCN1C(C)=O)[C@@H](C)OP(=O)(O)O)C(=O)O` [SEQ ID NO: 4, Ac-PLHS[pT]Al] (Ac-PLHS[pT]AI-OH; C-terminus assumed): in assay [4], the “Selectivity Index” value is 21,133. The IC50 in assay [4] (setting [9]) came to 64 nM; in assay [5] (setting [8]) it was 270000 nM.

Turning to `CC[C@H](C)[C@H](NC(=O)[C@H](C)NC(=O)[C@@H](NC(=O)[C@H](CO)NC(=O)[C@H](Cc1c[nH]cn1)NC(=O)[C@H](CC(C)C)NC(C)=O)[C@@H](C)OP(=O)(O)O)C(=O)O` [SEQ ID NO: 5, Ac-LHS[pT]Al] (Ac-LHS[pT]AI-OH; C-terminus assumed), the half-maximal inhibitory concentration (IC50) is 1570 nM in assay [4] and above 600000 nM in assay [5] (setting [7]). Besides, the “Selectivity Index” value in assay [4] is on record as above 1900. Further, in assay [5], the “PLK3 PBD binding, in words” value is “lost all detectable affinity”.

As to `CC(C)C[C@H](NC(=O)[C@@H]1CCCN1C(=O)CN)C(=O)N[C@@H](C)C(=O)N[C@H](C(=O)N[C@@H](CO)C(=O)N[C@H](C(=O)N1CCC[C@H]1C(=O)N[C@@H](CCCCN)C(=O)N[C@@H](CC(N)=O)C(=O)NCC(=O)O)[C@@H](C)OP(=O)(O)O)[C@@H](C)O` [SEQ ID NO: 7, GPLATS[pT]PKNG, reference compound] (H-GPLATS[pT]PKNG-OH; N-terminus and C-terminus assumed), in assay [4], the IC50 was 5.7 nM; the “Selectivity Index” value is ~2000 and 1928. The same molecule came in with a half-maximal inhibitory concentration (IC50) in assay [5] (setting [7]) of 2200 nM.

For `CC(C)C[C@H](NC(=O)CNC(=O)[C@H](CC(N)=O)NC(=O)[C@@H]1CCCN1C(=O)[C@@H](NC(=O)[C@H](CO)NC(=O)[C@@H](NC(=O)[C@H](C)NC(=O)[C@H](CC(C)C)NC(=O)[C@@H]1CCCN1C(=O)CN)[C@@H](C)O)[C@@H](C)OP(=O)(O)O)C(=O)O` [SEQ ID NO: 8, GPLATS[pT]PNGL] (H-GPLATS[pT]PNGL-OH; N-terminus and C-terminus assumed), in assay [4], the IC50 was found to be 11 nM, the “fold reduction of PLK1 PBD binding relative to parent compound” value was determined as 2 fold and the “Selectivity Index” value is listed as 2864. Besides, the “fold reduction of PLK3 PBD binding relative to parent compound” value in assay [5] was determined as 3 fold. Further, the IC50 in assay [5] (setting [7]) worked out at 6300 nM.

As to `CC(=O)N1CCC[C@H]1C(=O)N[C@@H](CC(C)C)C(=O)N[C@@H](Cc1c[nH]cn1)C(=O)N[C@@H](CO)C(=O)N[C@H](C(=O)N1CCC[C@H]1C(=O)N[C@@H](CCCCN)C(=O)N[C@@H](CC(N)=O)C(=O)NCC(=O)O)[C@@H](C)OP(=O)(O)O` [SEQ ID NO: 9, Ac-PLHS[pT]PKNG] (Ac-PLHS[pT]PKNG-OH; C-terminus assumed), the “Selectivity Index” value in assay [4] is reported as 20,906. Also, the IC50 stood at 32 nM in assay [4] (setting [9]) and 134000 nM in assay [5] (setting [8]).

In assay [6], Ac-PLHS[pT]A (SEQ ID NO: 6) had a Selectivity Index above 6500. Moreover, the IC50 in assay [1] came to 460 nM. In addition, the fold reduction in binding against SEQ ID NO: 4 in assay [3] was found to be 7 fold.

In the case of Ac-PLHS[pT]AI (SEQ ID NO: 4), the Selectivity Index in assay [6] was determined as 21100.

In assay [6], Ac-PLHS[pT]PKNG (SEQ ID NO: 9) showed a Selectivity Index of 20900. In assay [3], this molecule returned a fold weakened affinity against SEQ ID NO: 8 of 2 fold.

As to Ac-PLHS[pT]PNGL (SEQ ID NO: 3), in assay [6], the Selectivity Index came to 13600. Further, the fold increase against SEQ ID NO: 1 in assay [3] came out at 3 fold.

With “Compound No. 12, 4-hexyl S[pT]PNGL (SEQ ID NO: 11) (peptide)”, the half-maximal inhibitory concentration (IC50) in assay [1] worked out at 1000 nM. For the same molecule, in assay [2], the Selectivity Index is above 2830.

“Compound No. 13, 4-octyl S[pT]PNGL (SEQ ID NO: 11) (peptide)” gave an IC50 in assay [1] of 360 nM. The molecule further came in with a Selectivity Index in assay [2] of 2070.

With “Compound No. 14, 4-octyl S[pT]A (SEQ ID NO: 12) (peptide)”, in assay [1], the half-maximal inhibitory concentration (IC50) was 15200 nM. This molecule also displayed a Selectivity Index in assay [2] of 66. In assay [3], this molecule yielded a fold weaker affinity against Compound No. 15 of 40 fold.

In the case of GPLATS[pT]PKNG (SEQ ID NO: 7), the Selectivity Index in assay [6] amounted to 1930.

Ac-LHS[pT]AI [Ac-LHS[pT]AI (SEQ ID NO: 5)] registered a Selectivity Index in assay [6] above 1900. In assay [3], the fold loss of binding against SEQ ID NO: 4 came out at 24 fold.
